Results published in paper PMC10504751, “Chalcone/1,3,4-Oxadiazole/Benzimidazole hybrids as novel anti-proliferative agents inducing apoptosis and inhibiting EGFR & BRAFV^600E” (BMC Chemistry, 2023).
Where two headings read alike, the source gives them in different places.

Columns and labels:
HCT-116 = assay: NCI one-dose SRB anti-proliferative screen; format: cell-based, human; details: for inhibition at 10 µM: Homo sapiens, read-out: Cell growth inhibition %
Protocol: (§1) The twenty-four synthesized compounds were submitted to the National Cancer Institute (NCI), USA. Eighteen hybrids 7a-h, 7k-r, 7u, and 7v were selected by NCI for one-dose assessment of their anti-proliferative activities at 10 µM dose by Sulforhodamine B colorimetric assay. The assessment was performed in 60 cell lines derived from nine tumor subpanels, comprising lung, leukemia, melanoma, colon, renal, CNS, prostate, breast, and ovarian cancer cell lines.
(§2) The methodology of the NCI anti-proliferative screening has been described in details elsewhere (http://www.dtp.nci.nih.gov).

K-562 = assay: NCI one-dose SRB anti-proliferative screen; format: cell-based, human; details: for inhibition at 10 µM: Homo sapiens, K562, read-out: Cell growth inhibition %
Protocol: as §1, §2

MOLT-4 = assay: NCI one-dose SRB anti-proliferative screen; format: cell-based, human; details: for inhibition at 10 µM: Homo sapiens, read-out: Cell growth inhibition %
Protocol: as §1, §2

RXF 393 = assay: NCI one-dose SRB anti-proliferative screen; format: cell-based, human; details: Homo sapiens, read-out: Cell growth inhibition %
Protocol: as §1, §2

T-47D = assay: NCI one-dose SRB anti-proliferative screen; format: cell-based, human; details: for inhibition at 10 µM: Homo sapiens, T47D, read-out: Cell growth inhibition %
Protocol: as §1, §2

HL-60(TB) = assay: NCI one-dose SRB anti-proliferative screen; format: cell-based; details: Homo sapiens, read-out: Cell growth inhibition %
Protocol: as §1, §2

PC-3 = assay: NCI one-dose SRB anti-proliferative screen; format: cell-based; details: Homo sapiens, read-out: Cell growth inhibition %
Protocol: as §1, §2

SK-OV-3 = assay: NCI one-dose SRB anti-proliferative screen; format: cell-based; details: Homo sapiens, read-out: Cell growth inhibition %
Protocol: as §1, §2

A-549 = assay: Propidium iodide anti-proliferative assay; format: cell-based; details: Homo sapiens, A549; 48 h incubation; read-out: IC50 ± SEM A-549
Protocol: (§3) The propidium iodide (PI) tests^31, 32 were further used for assessment of the IC50 of all synthesized compounds and compared to Doxorubicin as a positive control against four cancer cell lines; pancreatic cancer cell line (Panc-1), epithelial line cancer cell (A-549), breast cancer cell line (MCF-7), and colon cancer cell line (HT-29).
(§4) Using the propidium iodide fluorescence assay with doxorubicin as the reference drug, IC50 of the 24 compounds 7a-x, was carried out according to a previously reported procedure^31, 32 against a panel of four human cancer cell lines; epithelial cancer cell line (A-549), breast cancer cell line (MCF-7), colon cancer cell line (HT-29) and pancreas cancer cell line (Panc-1). Compounds 7a-x were incubated with cancer cells for 2 days at different concentrations. See Appendix A.
(§5) To explore the antiproliferative potential of compounds propidium iodide fluorescence assay was performed using different cell lines (melanoma cancer cell line LOX-IMVI, pancreatic cancer cell line (Panc-1), epithelial line cancer cell (A-549), breast cancer cell line (MCF-7), and colon cancer cell line (HT-29). To calculate the total nuclear DNA, a fluorescent dye (propidium iodide, PI) is used which can attach to the DNA,^9,^10 thus offering a quick and precise technique. PI cannot pass through the cell membrane and its signal intensity can be considered as directly proportional to the quantity of cellular DNA. Cells whose cell membranes are damaged or have changed permeability are counted as dead ones. The assay was performed by seeding the cells of different cancer cell lines at a density of 3000-7500 cells/well (in 200µl medium) in culture plates followed by incubation for 24h at 37 °C in humidified 5% CO2/95% air atmospheric conditions. The medium was removed; the compounds were added to the plates at 10 µM concentrations (in 0.1% DMSO) in triplicates, followed by incubation for 48 h. DMSO (0.1%) was used as control. After incubation, medium was removed followed by the addition of PI (25 µl, 50µg/mL in water/medium) to each well of the plates. At -80 °C, the plates were allowed to freeze for 24 h, followed by thawing at 25 °C. A fluorometer (Polar-Star BMG Tech) was used to record the readings at excitation and emission wavelengths of 530 and 620 nm for each well. The percentage cytotoxicity of compounds was calculated using the following formula:
(§6) Where ATC= Absorbance of treated cells and AC= Absorbance of control. […]

HT-29 = assay: Propidium iodide anti-proliferative assay; format: cell-based; details: Homo sapiens, 48 h incubation, read-out: IC50 ± SEM HT-29
Protocol: as §3, §4, §5, §6

MCF-7 = assay: Propidium iodide anti-proliferative assay; format: cell-based; details: Homo sapiens, MCF7; 48 h incubation; read-out: IC50 ± SEM MCF-7
Protocol: as §3, §4, §5, §6

Panc-1 = assay: Propidium iodide anti-proliferative assay; format: cell-based; details: Homo sapiens, 48 h incubation, read-out: IC50 ± SEM Panc-1
Protocol: as §3, §4, §5, §6

[1] = MTT cell viability assay in normal cells; format: cell-based; details: human, MCF-10A normal mammary epithelial cells
Protocol: To check the safety of prepared compounds and evaluate their selectivity towards tumor cells over normal ones, the toxicity of compounds 7a-x were evaluated by 3-(4,5-Dimethylthiazole-2-yl)-2,5-diphenyltetrazol (MTT) assay on the normal human mammary epithelial cell line (MCF-10 A). The human mammary epithelial cell lines were incubated for four days with a concentration of 50 µM of compounds 7a-x.
MTT assay was done to determine the effect of the synthesized compounds on the viability of mammary epithelial cells (MCF-10 A). Compounds 7a-x were incubated with MCF-10 A cells for 4 days at 50 µM concentration, and the viability of cells was determined. See Appendix A.
MTT assay was carried out to study the effect of compounds on mammary epithelial cells (MCF-10A).^7, ^8 The medium in which cells were propagated contained Dulbecco's modified Eagle's medium (DMEM)/ Ham's F-12 medium (1:1) supplemented with epidermal growth factor (20 ng/mL), hydrocortisone (500 ng/mL), insulin (10 μg/mL), 2 mM glutamine and 10% foetal calf serum. After every 2-3 days, the cells were passaged using trypsin ethylenediamine tetra acetic acid (EDTA). The cells were seeded at a density of 10^4 cells mL^-1 in flat-bottomed culture plates containing 96 wells each. After 24 h, medium was removed from the plates and the compounds in (in 0.1% DMSO) were added (in 200 μL medium to yield a final concentration of 0.1% v/v) to the wells of plates. A single compound was designated with four wells followed by incubation of plates for 96h at 37°C. After incubation, medium was removed completely from the plates followed by addition of MTT (0.4 mg/mL in medium) to each well and subsequent incubation of plates for 3h. MTT (along with the medium) was removed and DMSO (150μL) was added to each well of the culture plates, followed by vortexing and subsequent measurement of absorbance (at 540 nm) using microplate reader.

[2] = HCT-116 (Colon Cancer), NCI one dose 10 µM
[3] = K-562 (Leukemia), NCI one dose 10 µM
[4] = MOLT-4 (Leukemia), NCI one dose 10 µM
[5] = RXF 393 (Renal Cancer), NCI one dose 10 µM
[6] = T-47D (Breast Cancer), NCI one dose 10 µM
[7] = HL-60(TB) (Leukemia), NCI one dose 10 µM
[8] = PC-3 (Prostate Cancer), NCI one dose 10 µM
[9] = SK-OV-3 (Ovarian Cancer), NCI one dose 10 µM
[10] = HCT-116, Colon cancer, NCI one dose
[11] = RXF 393, Renal cancer, NCI one dose
[12] = T-47D, Breast cancer, NCI one dose
[13] = HL-60(TB), Leukemia, NCI one dose
[14] = PC-3, Prostate Cancer, NCI one dose
[15] = SK-OV-3, Ovarian Cancer, NCI one dose

| SMILES | inhibition at 10 µM (HCT-116; [2]) [%] | inhibition at 10 µM (K-562; [3]) [%] | inhibition at 10 µM (MOLT-4; [4]) [%] | inhibition at 10 µM (RXF 393; [5]) [%] | inhibition at 10 µM (T-47D; [6]) [%] | inhibition at 10 µM (HL-60(TB); [7]) [%] | inhibition at 10 µM (PC-3; [8]) [%] | inhibition at 10 µM (SK-OV-3; [9]) [%] | IC50 (A-549) [nM] | IC50 (HT-29) [nM] | IC50 (MCF-7) [nM] | IC50 (Panc-1) [nM] | viability at 96 h, 50 µM [1] [%] | inhibition at 10 µM (HCT-116; [10]) [%] | inhibition at 10 µM (K-562; K-562, Leukemia, NCI one dose) [%] | inhibition at 10 µM (MOLT-4; MOLT-4, Leukemia, NCI one dose) [%] | inhibition at 10 µM (RXF 393; [11]) [%] | inhibition at 10 µM (T-47D; [12]) [%] | inhibition at 10 µM (HL-60(TB); [13]) [%] | inhibition at 10 µM (PC-3; [14]) [%] | also measured |
| --- | --- | --- | --- | --- | --- | --- | --- | --- | --- | --- | --- | --- | --- | --- | --- | --- | --- | --- | --- | --- | --- |
| COc1ccc(/C=C/C(=O)c2ccc(NC(=O)CSc3nnc(-c4ccc5[nH]c(-c6ccc(OC)c(OC)c6)nc5c4)o3)cc2)cc1 [Compound 7r, 2-{5-[2-(3,4-Dimethoxyphenyl)-1 H-benzo[d]imidazol-5-yl]-1,3,4-oxadiazol-2-ylthio}-N-{4-[(E)-3-(4-methoxyphenyl)acryloyl]phenyl}acetamide] | 3.79 | 21.9 | 34.5 | 0 | 28.9 | 20.9 | 7.58 | 0 | 3600 ± 500 | 4200 ± 500 | 3100 ± 500 | 3900 ± 500 | 91 | – | – | – | – | – | – | – | melting point: 170 to 171 °C |
| COc1cc(-c2nc3cc(-c4nnc(SCC(=O)Nc5ccc(C(=O)/C=C/c6ccccc6)cc5)o4)ccc3[nH]2)cc(OC)c1OC [Compound 7u, 2-{5-[2-(3,4,5-Trimethoxyphenyl)-1 H-benzo[d]imidazol-5-yl]-1,3,4-oxadiazol-2-ylthio}-N-{4-[(E)-3-phenylacryloyl]phenyl}acetamide] | 26.5 | 14.9 | 21.8 | 0 | 14.8 | 5.25 | 9.18 | 0 | 2250 ± 500 | 2700 ± 500 | 2100 ± 80 | 2400 ± 200 | 90 | – | – | – | – | – | – | – | melting point: 188 to 190 °C |
| COc1ccc(-c2nc3cc(-c4nnc(SCC(=O)Nc5ccc(C(=O)/C=C/c6ccccc6)cc5)o4)ccc3[nH]2)cc1 [Compound 7k, 2-{5-[2-(4-Methoxyphenyl)-1 H-benzo[d]imidazol-5-yl]-1,3,4-oxadiazol-2-ylthio}-N-{4-[(E)-3-phenylacryloyl]phenyl}acetamide] | – | – | – | – | – | – | – | – | 1200 ± 200 | 1400 ± 200 | 950 ± 80 | 1300 ± 200 | 91 | 41.3 | 44.6 | 53 | 37.9 | 58 | 28.7 | 22.4 | Growth Percent (HCT-116; HCT-116 (Colon Cancer), 10 µM one dose): 58.69%; Growth Percent (K-562; K-562 (Leukemia), 10 µM one dose): 55%; Growth Percent (MOLT-4; MOLT-4 (Leukemia), 10 µM one dose): 47%; Growth Percent (T-47D; T-47D (Breast Cancer), 10 µM one dose): 42.05%; inhibition at 10 µM (SK-OV-3; [15]): 0% |
| COc1ccc(/C=C/C(=O)c2ccc(NC(=O)CSc3nnc(-c4ccc5[nH]c(-c6ccc(OC)cc6)nc5c4)o3)cc2)cc1 [Compound 7m, 2-{5-[2-(4-Methoxyphenyl)-1 H-benzo[d]imidazol-5-yl]-1,3,4-oxadiazol-2-ylthio}-N-{4-[(E)-3-(4-methoxyphenyl)acryloyl]phenyl}acetamide] | – | – | – | – | – | – | – | – | 1400 ± 500 | 1850 ± 400 | 1200 ± 80 | 1500 ± 200 | 94 | 0 | 28.7 | 36.9 | 0 | 31.1 | 21.9 | 14.7 | inhibition at 10 µM (SK-OV-3; [15]): 0% |
| COc1ccc(-c2nc3cc(-c4nnc(SCC(=O)Nc5ccc(C(=O)/C=C/c6ccc(Cl)cc6)cc5)o4)ccc3[nH]2)cc1 [Compound 7l, 2-{5-[2-(4-Methoxyphenyl)-1 H-benzo[d]imidazol-5-yl]-1,3,4-oxadiazol-2-ylthio}-N-{4-[(E)-3-(4-chlorophenyl)acryloyl]phenyl}acetamide] | – | – | – | – | – | – | – | – | 1450 ± 300 | 1650 ± 300 | 1100 ± 100 | 1500 ± 300 | 89 | 0 | 6.12 | 11.7 | 1.82 | 7.23 | 5.86 | 5.06 | inhibition at 10 µM (SK-OV-3; [15]): 0% |
| COc1cc(-c2nc3cc(-c4nnc(SCC(=O)Nc5ccc(C(=O)/C=C/c6ccc(Cl)cc6)cc5)o4)ccc3[nH]2)cc(OC)c1OC [Compound 7v, 2-{5-[2-(3,4,5-Trimethoxyphenyl)-1 H-benzo[d]imidazol-5-yl]-1,3,4-oxadiazol-2-ylthio}-N-{4-[(E)-3-(4-chlorophenyl)acryloyl]phenyl}acetamide] | 18.5 | 16.2 | 20.6 | 0 | 19.6 | 7.46 | 4.91 | 0 | 2450 ± 500 | 2900 ± 500 | 2200 ± 80 | 2600 ± 200 | 87 | – | – | – | – | – | – | – | – |
